Results: PMC9506414, “Novel 2,6,9-Trisubstituted Purines as Potent CDK Inhibitors Alleviating Trastuzumab-Resistance of HER2-Positive Breast Cancers” (Pharmaceuticals, 2022)

Experiments:
Experiment in all cases: Kinome-wide inhibition profiling
Type in all cases: biochemical
[1] = biological target: T1, AurkA (Homo sapiens, UniProt O14965)
T1 construct: purchased Reaction Biology Corp
Method: (§1) In vitro CDK12/cyclinK assays for all compounds and in vitro kinome-wide inhibition profiling of 30d at 10 μM were performed by a CRO company (Reaction Biology Corp., San Diego, CA, USA).

[2] = biological target: T2, AurkB (Homo sapiens, UniProt Q96GD4)
T2 construct: purchased Reaction Biology Corp
Method: as §1

[3] = biological target: T3, BMPR1A (Homo sapiens, UniProt P36894)
T3 construct: purchased Reaction Biology Corp
Method: as §1

[4] = biological target: T4, BMX (Homo sapiens, UniProt P51813)
T4 construct: purchased Reaction Biology Corp
Method: as §1

[5] = biological target: T5, BRK (Homo sapiens, UniProt Q13882)
T5 construct: purchased Reaction Biology Corp
Method: as §1

[6] = biological target: T6, CAMK4 (Homo sapiens, UniProt Q16566)
T6 construct: purchased Reaction Biology Corp
Method: as §1

[7] = biological target: T7, CDK7/cyclinH (Homo sapiens, UniProt P50613)
T7 construct: purchased Reaction Biology Corp
Method: as §1

[8] = biological target: T8, CLK1 (Homo sapiens, UniProt P49759)
T8 construct: purchased Reaction Biology Corp
Method: as §1

[9] = biological target: T9, CSK (Homo sapiens, UniProt P41240)
T9 construct: purchased Reaction Biology Corp
Method: as §1

[10] = biological target: T10, CSNK1D (Homo sapiens, UniProt P48730)
T10 construct: purchased Reaction Biology Corp
Method: as §1

[11] = biological target: T11, CSNK2A2 (Homo sapiens, UniProt P19784)
T11 construct: purchased Reaction Biology Corp
Method: as §1

[12] = biological target: T12, DAPK1 (Homo sapiens, UniProt P53355)
T12 construct: purchased Reaction Biology Corp
Method: as §1

[13] = biological target: T13, DDR1 (Homo sapiens, UniProt Q08345)
T13 construct: purchased Reaction Biology Corp
Method: as §1

[14] = biological target: T14, EPHA2 (Homo sapiens, UniProt P29317)
T14 construct: purchased Reaction Biology Corp
Method: as §1

[15] = biological target: T15, EPHA8 (Homo sapiens, UniProt P29322)
T15 construct: purchased Reaction Biology Corp
Method: as §1

[16] = biological target: T16, EPHB2 (Homo sapiens, UniProt P29323)
T16 construct: purchased Reaction Biology Corp
Method: as §1

[17] = biological target: T17, EPHB4 (Homo sapiens, UniProt P54760)
T17 construct: purchased Reaction Biology Corp
Method: as §1

[18] = biological target: T18, ERN1 (Homo sapiens, UniProt O75460)
T18 construct: purchased Reaction Biology Corp
Method: as §1

[19] = biological target: T19, GRK3 (Homo sapiens, UniProt P35626)
T19 construct: purchased Reaction Biology Corp
Method: as §1

[20] = biological target: T20, IRAK4 (Homo sapiens, UniProt Q9NWZ3)
T20 construct: purchased Reaction Biology Corp
Method: as §1

[21] = biological target: T21, JNK3 (Homo sapiens, UniProt P53779)
T21 construct: purchased Reaction Biology Corp
Method: as §1

[22] = biological target: T22, KSR2 (Homo sapiens, UniProt Q6VAB6)
T22 construct: purchased Reaction Biology Corp
Method: as §1

[23] = biological target: T23, LIMK2 (Homo sapiens, UniProt P53671)
T23 construct: purchased Reaction Biology Corp
Method: as §1

[24] = biological target: T24, MAP3K2 (Homo sapiens, UniProt Q9Y2U5)
T24 construct: purchased Reaction Biology Corp
Method: as §1

[25] = biological target: T25, MAPKAPK3 (Homo sapiens, UniProt Q16644)
T25 construct: purchased Reaction Biology Corp
Method: as §1

[26] = biological target: T26, MLK1 (Homo sapiens, UniProt P80192)
T26 construct: purchased Reaction Biology Corp
Method: as §1

[27] = biological target: T27, MLK2 (Homo sapiens, UniProt Q02779)
T27 construct: purchased Reaction Biology Corp
Method: as §1

[28] = biological target: T28, MNK1 (Homo sapiens, UniProt Q9BUB5)
T28 construct: purchased Reaction Biology Corp
Method: as §1

[29] = biological target: T29, MRCKa (Homo sapiens, UniProt Q5VT25)
T29 construct: purchased Reaction Biology Corp
Method: as §1

[30] = biological target: T30, MUSK (Homo sapiens, UniProt O15146)
T30 construct: purchased Reaction Biology Corp
Method: as §1

[31] = biological target: T31, MYO3b (Homo sapiens, UniProt Q8WXR4)
T31 construct: purchased Reaction Biology Corp
Method: as §1

[32] = biological target: T32, NEK2 (Homo sapiens, UniProt P51955)
T32 construct: purchased Reaction Biology Corp
Method: as §1

[33] = biological target: T33, PKCb1 (Homo sapiens, UniProt P05771)
T33 construct: purchased Reaction Biology Corp
Method: as §1

[34] = biological target: T34, PLK4 (Homo sapiens, UniProt O00444)
T34 construct: purchased Reaction Biology Corp
Method: as §1

[35] = biological target: T35, PRKD2 (Homo sapiens, UniProt Q9BZL6)
T35 construct: purchased Reaction Biology Corp
Method: as §1

[36] = biological target: T36, PRKG1b (Homo sapiens, UniProt Q13976)
T36 construct: purchased Reaction Biology Corp
Method: as §1

[37] = biological target: T37, RAF1 (Homo sapiens, UniProt P04049)
T37 construct: purchased Reaction Biology Corp
Method: as §1

[38] = biological target: T38, RSK1 (Homo sapiens, UniProt Q15418)
T38 construct: purchased Reaction Biology Corp
Method: as §1

[39] = biological target: T39, RSK2 (Homo sapiens, UniProt P51812)
T39 construct: purchased Reaction Biology Corp
Method: as §1

[40] = biological target: T40, STK39 (Homo sapiens, UniProt Q9UEW8)
T40 construct: purchased Reaction Biology Corp
Method: as §1

[41] = biological target: T41, ULK2 (Homo sapiens, UniProt Q8IYT8)
T41 construct: purchased Reaction Biology Corp
Method: as §1

[42] = biological target: T42, WNK2 (Homo sapiens, UniProt Q9Y3S1)
T42 construct: purchased Reaction Biology Corp
Method: as §1

[43] = biological target: T43, YANK2 (Homo sapiens, UniProt Q9NY57)
T43 construct: purchased Reaction Biology Corp
Method: as §1

[44] = biological target: T44, YSK4 (Homo sapiens, UniProt Q56UN5)
T44 construct: purchased Reaction Biology Corp
Method: as §1

T7 sequence (P50613 whole entry): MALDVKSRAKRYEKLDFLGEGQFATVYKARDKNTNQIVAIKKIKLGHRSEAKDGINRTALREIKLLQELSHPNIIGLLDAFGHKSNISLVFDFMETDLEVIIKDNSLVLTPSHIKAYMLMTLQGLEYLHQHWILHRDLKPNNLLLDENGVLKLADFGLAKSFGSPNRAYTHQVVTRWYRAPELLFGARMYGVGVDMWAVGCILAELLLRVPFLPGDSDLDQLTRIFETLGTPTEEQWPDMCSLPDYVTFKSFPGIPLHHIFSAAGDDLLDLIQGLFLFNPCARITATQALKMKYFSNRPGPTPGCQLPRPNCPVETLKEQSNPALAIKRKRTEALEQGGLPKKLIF
T7 sequence (P51946 whole entry partner): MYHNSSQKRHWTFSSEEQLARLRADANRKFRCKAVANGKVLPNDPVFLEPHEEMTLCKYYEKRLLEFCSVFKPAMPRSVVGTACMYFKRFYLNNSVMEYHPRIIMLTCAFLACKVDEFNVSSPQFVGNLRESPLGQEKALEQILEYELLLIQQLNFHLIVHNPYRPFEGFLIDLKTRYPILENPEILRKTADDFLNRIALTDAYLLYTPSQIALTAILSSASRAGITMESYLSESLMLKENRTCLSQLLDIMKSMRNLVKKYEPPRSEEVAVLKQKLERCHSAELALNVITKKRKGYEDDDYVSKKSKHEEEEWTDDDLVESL
T7 sequence (P51948 whole entry partner): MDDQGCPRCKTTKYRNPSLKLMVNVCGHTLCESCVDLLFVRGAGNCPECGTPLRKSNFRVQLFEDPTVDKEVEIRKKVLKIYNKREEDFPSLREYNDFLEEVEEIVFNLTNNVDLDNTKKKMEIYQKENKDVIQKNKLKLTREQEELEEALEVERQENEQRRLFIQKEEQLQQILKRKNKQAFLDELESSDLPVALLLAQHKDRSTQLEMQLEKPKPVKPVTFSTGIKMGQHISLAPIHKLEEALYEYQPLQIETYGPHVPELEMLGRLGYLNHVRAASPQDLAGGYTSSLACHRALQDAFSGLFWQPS
T16 sequence (P29323 19-1055): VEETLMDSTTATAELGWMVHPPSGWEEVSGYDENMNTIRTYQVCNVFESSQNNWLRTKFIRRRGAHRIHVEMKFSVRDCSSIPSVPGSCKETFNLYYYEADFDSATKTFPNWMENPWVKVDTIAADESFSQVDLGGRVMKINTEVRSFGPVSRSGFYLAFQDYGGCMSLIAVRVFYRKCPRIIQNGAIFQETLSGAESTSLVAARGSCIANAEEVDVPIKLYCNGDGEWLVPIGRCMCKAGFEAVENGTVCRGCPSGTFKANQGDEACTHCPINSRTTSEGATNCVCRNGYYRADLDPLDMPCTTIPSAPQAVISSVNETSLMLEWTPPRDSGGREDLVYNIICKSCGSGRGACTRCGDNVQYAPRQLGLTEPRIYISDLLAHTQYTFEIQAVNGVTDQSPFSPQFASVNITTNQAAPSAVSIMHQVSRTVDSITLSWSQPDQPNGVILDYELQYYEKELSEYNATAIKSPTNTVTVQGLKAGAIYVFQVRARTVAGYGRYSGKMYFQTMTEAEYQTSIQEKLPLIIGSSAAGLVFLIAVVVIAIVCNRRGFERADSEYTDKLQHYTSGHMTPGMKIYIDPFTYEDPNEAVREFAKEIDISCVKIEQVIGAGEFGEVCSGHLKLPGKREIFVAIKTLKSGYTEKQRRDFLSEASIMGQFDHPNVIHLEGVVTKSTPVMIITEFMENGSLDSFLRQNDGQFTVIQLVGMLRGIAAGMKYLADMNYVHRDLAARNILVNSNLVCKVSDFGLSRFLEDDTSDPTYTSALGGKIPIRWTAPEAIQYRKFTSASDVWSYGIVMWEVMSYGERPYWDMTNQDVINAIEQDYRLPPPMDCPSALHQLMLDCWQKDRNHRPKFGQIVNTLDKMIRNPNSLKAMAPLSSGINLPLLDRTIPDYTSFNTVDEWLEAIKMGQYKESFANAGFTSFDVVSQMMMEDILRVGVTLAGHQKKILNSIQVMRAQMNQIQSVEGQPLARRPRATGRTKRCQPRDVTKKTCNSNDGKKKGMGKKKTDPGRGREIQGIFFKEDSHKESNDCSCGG
T10 sequence (P48730 whole entry): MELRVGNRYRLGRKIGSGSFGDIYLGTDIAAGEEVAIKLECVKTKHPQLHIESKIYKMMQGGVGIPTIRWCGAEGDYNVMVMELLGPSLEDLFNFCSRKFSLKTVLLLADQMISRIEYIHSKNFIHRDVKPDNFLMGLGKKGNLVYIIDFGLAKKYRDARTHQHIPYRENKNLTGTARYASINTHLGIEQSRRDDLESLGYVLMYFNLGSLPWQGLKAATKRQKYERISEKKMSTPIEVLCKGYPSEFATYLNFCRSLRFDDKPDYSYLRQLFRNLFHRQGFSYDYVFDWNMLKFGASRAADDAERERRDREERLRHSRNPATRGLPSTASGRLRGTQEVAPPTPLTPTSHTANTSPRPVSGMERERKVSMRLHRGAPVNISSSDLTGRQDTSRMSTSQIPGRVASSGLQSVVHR
T12 sequence (P53355 whole entry): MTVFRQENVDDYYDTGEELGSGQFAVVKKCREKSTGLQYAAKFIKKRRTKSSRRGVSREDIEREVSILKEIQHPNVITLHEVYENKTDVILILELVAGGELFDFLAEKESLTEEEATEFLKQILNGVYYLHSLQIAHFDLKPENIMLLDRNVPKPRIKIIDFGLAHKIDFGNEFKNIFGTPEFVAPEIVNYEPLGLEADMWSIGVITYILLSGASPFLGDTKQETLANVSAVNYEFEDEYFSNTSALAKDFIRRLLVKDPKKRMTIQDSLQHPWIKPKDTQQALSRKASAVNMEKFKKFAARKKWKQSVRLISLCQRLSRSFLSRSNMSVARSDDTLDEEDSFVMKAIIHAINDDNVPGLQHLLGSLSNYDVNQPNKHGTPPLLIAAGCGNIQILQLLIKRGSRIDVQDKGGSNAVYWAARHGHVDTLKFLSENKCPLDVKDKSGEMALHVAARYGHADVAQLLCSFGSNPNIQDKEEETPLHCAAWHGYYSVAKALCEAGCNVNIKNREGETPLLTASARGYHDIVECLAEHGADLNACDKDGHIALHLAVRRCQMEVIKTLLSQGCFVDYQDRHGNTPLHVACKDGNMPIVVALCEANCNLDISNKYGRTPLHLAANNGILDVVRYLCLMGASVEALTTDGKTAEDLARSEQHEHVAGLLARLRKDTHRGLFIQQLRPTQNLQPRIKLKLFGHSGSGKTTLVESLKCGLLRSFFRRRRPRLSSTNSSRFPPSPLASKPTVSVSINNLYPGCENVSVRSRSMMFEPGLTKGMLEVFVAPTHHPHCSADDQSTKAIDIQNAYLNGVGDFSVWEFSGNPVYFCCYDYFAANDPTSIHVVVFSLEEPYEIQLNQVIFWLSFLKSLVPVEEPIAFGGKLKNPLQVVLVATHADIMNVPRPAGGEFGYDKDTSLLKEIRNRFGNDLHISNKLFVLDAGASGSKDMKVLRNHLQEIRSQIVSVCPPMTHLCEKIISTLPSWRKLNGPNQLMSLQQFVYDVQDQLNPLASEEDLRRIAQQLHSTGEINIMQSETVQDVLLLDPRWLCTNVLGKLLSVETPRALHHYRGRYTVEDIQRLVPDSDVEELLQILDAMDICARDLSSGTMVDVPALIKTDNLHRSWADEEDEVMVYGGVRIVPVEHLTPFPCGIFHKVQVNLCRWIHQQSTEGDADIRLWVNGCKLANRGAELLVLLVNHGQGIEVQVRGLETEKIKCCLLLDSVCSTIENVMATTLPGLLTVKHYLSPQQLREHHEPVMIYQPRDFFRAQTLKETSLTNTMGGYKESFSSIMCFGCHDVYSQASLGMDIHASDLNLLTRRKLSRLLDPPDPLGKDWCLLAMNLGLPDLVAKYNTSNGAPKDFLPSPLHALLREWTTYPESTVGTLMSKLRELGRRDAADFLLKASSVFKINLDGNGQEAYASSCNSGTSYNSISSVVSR
T23 sequence (P53671 whole entry): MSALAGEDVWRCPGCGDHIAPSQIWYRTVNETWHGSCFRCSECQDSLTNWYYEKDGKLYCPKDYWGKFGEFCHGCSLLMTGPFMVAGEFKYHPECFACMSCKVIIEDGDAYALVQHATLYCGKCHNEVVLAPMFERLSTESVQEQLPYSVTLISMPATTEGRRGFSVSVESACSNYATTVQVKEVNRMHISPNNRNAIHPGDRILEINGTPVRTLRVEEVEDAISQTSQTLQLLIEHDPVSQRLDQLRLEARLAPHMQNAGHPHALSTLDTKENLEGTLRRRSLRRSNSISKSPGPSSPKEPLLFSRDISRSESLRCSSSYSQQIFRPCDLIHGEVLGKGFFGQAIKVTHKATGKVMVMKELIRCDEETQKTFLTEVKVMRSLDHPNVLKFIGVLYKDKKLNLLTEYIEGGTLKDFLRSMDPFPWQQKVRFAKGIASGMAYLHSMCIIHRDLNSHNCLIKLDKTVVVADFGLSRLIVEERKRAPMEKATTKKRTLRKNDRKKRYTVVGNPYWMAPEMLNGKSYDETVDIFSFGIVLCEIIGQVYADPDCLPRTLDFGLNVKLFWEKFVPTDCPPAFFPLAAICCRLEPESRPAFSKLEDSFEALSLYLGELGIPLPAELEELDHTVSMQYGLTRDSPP
T43 sequence (Q9NY57 whole entry): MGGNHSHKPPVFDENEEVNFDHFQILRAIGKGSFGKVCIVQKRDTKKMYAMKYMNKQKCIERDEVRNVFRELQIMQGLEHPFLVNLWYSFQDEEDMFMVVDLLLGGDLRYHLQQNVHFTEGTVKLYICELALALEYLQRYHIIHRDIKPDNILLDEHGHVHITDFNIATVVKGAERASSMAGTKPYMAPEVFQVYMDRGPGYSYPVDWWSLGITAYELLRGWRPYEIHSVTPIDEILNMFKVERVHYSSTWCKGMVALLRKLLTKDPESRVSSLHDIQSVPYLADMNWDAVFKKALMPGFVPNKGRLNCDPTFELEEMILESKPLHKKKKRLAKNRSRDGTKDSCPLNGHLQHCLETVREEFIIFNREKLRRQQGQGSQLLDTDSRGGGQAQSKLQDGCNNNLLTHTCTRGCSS

In the case of `CCn1cnc2c(NCc3ccc(-c4ccccn4)nc3)nc(-c3ccc(N)nc3)nc21` [Compound 30d, N-([2,2′-Bipyridin]-5-ylmethyl)-2-(6-aminopyridin-3-yl)-9-ethyl-9H-purin-6-amine], the remaining activity at 10 µM [1] is reported as 33.4%, the remaining activity at 10 µM [2] is reported as 73% and the remaining activity at 10 µM [3] is reported as 126%. For the same compound, the remaining activity at 10 µM [4] was 141%, the remaining activity at 10 µM [5] was 46.6% and the remaining activity at 10 µM [6] was 95.2%. For the same compound, the inhibition at 10 µM [7] was over 95%, the remaining activity at 10 µM [7] was 3.8% and the remaining activity at 10 µM [8] was 13.7%. It also gave a remaining activity at 10 µM [9] of 54.8%, a remaining activity at 10 µM [10] of 10.2% and a remaining activity at 10 µM [11] of 91.3%. For the same compound, the remaining activity at 10 µM [12] was 99.7%, the remaining activity at 10 µM [13] was 50.2% and the remaining activity at 10 µM [14] was 42.3%. It also gave a remaining activity at 10 µM [15] of 94%, an inhibition at 10 µM [16] of over 95% and a remaining activity at 10 µM [16] of 2.5%. The remaining activity at 10 µM [17] was 23.2%, the remaining activity at 10 µM [18] was 50.8% and the remaining activity at 10 µM [19] was 102%. The remaining activity at 10 µM [20] was 94.8%, the remaining activity at 10 µM [21] was 48.7% and the remaining activity at 10 µM [22] was 88.4%. The remaining activity at 10 µM [23] was 76.5%, the remaining activity at 10 µM [24] was 90% and the remaining activity at 10 µM [25] was 100%. For the same compound, the remaining activity at 10 µM [26] was 27.9%, the remaining activity at 10 µM [27] was 62.3% and the remaining activity at 10 µM [28] was 89.3%. For the same compound, the remaining activity at 10 µM [29] was 96.6%, the remaining activity at 10 µM [30] was 10.2% and the remaining activity at 10 µM [31] was 68.1%. For the same compound, the remaining activity at 10 µM [32] was 91.1%, the remaining activity at 10 µM [33] was 89.9% and the remaining activity at 10 µM [34] was 83.4%. It also gave a remaining activity at 10 µM [35] of 72.3%, a remaining activity at 10 µM [36] of 97.6% and a remaining activity at 10 µM [37] of 68.6%. For the same compound, the remaining activity at 10 µM [38] was 59.1%, the remaining activity at 10 µM [39] was 69.4% and the remaining activity at 10 µM [40] was 29.6%. The remaining activity at 10 µM [41] was 87.3%, the remaining activity at 10 µM [42] was 108% and the remaining activity at 10 µM [43] was 57.6%. For the same compound, the remaining activity at 10 µM [44] was 96.8%.
